pIC50: −log10 of the molar value. Where only a bound is given, the exact number is not on record here.

The target in data set [1] is T1, Prostaglandin G/H synthase 1 (Ovis aries, UniProt P05979).
T1 sequence (P05979 whole entry): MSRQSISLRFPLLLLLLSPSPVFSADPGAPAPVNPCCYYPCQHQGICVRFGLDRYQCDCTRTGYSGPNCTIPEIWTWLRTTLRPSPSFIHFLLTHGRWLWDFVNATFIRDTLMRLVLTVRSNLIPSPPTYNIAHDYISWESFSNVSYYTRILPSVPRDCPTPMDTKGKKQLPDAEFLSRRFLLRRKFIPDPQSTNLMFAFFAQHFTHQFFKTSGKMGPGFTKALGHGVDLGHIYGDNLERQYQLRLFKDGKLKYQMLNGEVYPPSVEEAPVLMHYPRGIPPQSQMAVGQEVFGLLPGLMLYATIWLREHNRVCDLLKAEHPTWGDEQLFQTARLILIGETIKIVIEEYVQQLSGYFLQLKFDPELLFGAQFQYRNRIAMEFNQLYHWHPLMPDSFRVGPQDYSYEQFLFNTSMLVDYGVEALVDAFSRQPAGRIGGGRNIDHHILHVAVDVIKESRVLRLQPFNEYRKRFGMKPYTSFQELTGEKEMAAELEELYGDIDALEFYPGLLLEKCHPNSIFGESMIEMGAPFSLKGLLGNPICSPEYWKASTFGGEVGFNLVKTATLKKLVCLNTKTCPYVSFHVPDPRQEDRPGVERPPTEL
Kind of data set: Inhibition of ovine COX1.

Data set [2] is described as follows: Drug uptake in human HCA-7 cells overexpressing COX2 assessed as fluorescence at 10 uM after 1 hr by confocal laser scanning microscopic analysis. Format: ADME, cell-based. Conditions: hca-7, 1 h; call rule not given here.

As a reminder, the pIC50 is the negative decadic logarithm of the IC50, by convention in mol/L. `CC(C)Cc1ccc(C(C)C(=O)n2c3ccccc3c(=O)c3ccccc32)cc1` (stereo unspecified) had a pIC50 in data set [1] of 4.29. On the same count and under the same terms, as for `O=c1c2ccccc2n(CCOS(=O)(=O)c2ccc(C(F)(F)F)cc2)c2ccccc12`, the figure is 4.06; as for `CCN(CC)c1ccc2c(c1)Oc1cc(N(CC)CC)ccc1C21c2ccccc2C(=O)N1CCNS(=O)(=O)c1ccc(-n2nc(C(F)(F)F)cc2-c2ccc(C)cc2)cc1`, below 4.00. For the compound `CCN(CC)c1ccc2c(-c3ccccc3C(=O)O)c3ccc(=[N+](CC)CC)cc-3oc2c1` [RHODAMINE B], the Drug uptake entry in data set [2] was “Not Active”. In turn, `CC(C)Cc1ccc(C(C)C(=O)OCCNS(=O)(=O)c2cccc3c(N(C)C)cccc23)cc1` (stereo unspecified) had a pIC50 in data set [1] below 4.00.

On to `COc1ccc2cc([C@H](C)C(=O)OCCn3c4ccccc4c(=O)c4ccccc43)ccc2c1`, for which the pIC50 in data set [1] is 4.52. The same measure, in the same setting: for `Cc1ccc(-c2cc(C(F)(F)F)nn2-c2ccc(S(=O)(=O)NCCNS(=O)(=O)c3cccc4c(N(C)C)cccc34)cc2)cc1` the value was below 4.00; for `CN(C)c1cccc2c(S(=O)(=O)NCCNS(=O)(=O)c3ccc(C4=C(c5ccc(Cl)cc5)C(=O)OC4)cc3)cccc12`, below 4.00. Still for that read-out and setting: for `COc1ccc2cc([C@H](C)C(=O)n3c4ccccc4c(=O)c4ccccc43)ccc2c1` the value was 4.74; for `CC(C)Cc1ccc(C(C)C(=O)OCCn2c3ccccc3c(=O)c3ccccc32)cc1` (stereo unspecified), 4.13. In the case of `CC(=O)Oc1ccccc1C(=O)OCCn1c2ccccc2c(=O)c2ccccc21`, the pIC50 in data set [1] was 4.40. Compared with the last compound, the pIC50 is 0.27 log units higher.

These data come from ChEMBL document CHEMBL2311446, “Hybrid fluorescent conjugates of COX-2 inhibitors: search for a COX-2 isozyme imaging cancer biomarker” (Bioorg Med Chem Lett, 2013).
